Measured values from patent US10206986B2, “Annexin II variant compositions and methods” (REGENTS OF THE UNIVERSITY OF MINNESOTA, priority 2013, dated 2019).

Tests used:
[1] = test system: breast tumor; assay: Breast-tumor-bearing mice vaccinated intraperitoneally, tumor growth and survival; type: in vivo, BALB/c mice; details: 10 consecutive days intraperitoneally; for survival of tumor bearing mice: breast tumor bearing BALB/c mice, compared to saline or scrambled control, FIG. 5
Method: (§1) Next, we investigated the use of the A2OVA in vivo. A2OVA peptide (SEQ ID NO:32) was given to non-tumor bearing mice as described in FIG. 4A to see if they would elicit an OVA specific T cell response. […] To determine if the 35 amino acid annexin II fragment can extend survival in tumor bearing animals in an antigen non-specific manner, we used breast tumor bearing BALB/c mice, which lack the MHC haplotype to present SIINFEKL. Mice were treated with A2OVA peptide as summarized in FIG. 5A and followed for survival.

[2] = biological target: T1, hTLR2 (Homo sapiens, UniProt O60603); assay: TLR2-transfected HEK 293 Blue cells, secreted alkaline phosphatase (NF-κB activity); type: cell-based; details: 48 hours, FIGS. 3, 6, 7
T1 construct: host or cells: HEK 293 Blue Cells
T1 sequence (O60603 21-784): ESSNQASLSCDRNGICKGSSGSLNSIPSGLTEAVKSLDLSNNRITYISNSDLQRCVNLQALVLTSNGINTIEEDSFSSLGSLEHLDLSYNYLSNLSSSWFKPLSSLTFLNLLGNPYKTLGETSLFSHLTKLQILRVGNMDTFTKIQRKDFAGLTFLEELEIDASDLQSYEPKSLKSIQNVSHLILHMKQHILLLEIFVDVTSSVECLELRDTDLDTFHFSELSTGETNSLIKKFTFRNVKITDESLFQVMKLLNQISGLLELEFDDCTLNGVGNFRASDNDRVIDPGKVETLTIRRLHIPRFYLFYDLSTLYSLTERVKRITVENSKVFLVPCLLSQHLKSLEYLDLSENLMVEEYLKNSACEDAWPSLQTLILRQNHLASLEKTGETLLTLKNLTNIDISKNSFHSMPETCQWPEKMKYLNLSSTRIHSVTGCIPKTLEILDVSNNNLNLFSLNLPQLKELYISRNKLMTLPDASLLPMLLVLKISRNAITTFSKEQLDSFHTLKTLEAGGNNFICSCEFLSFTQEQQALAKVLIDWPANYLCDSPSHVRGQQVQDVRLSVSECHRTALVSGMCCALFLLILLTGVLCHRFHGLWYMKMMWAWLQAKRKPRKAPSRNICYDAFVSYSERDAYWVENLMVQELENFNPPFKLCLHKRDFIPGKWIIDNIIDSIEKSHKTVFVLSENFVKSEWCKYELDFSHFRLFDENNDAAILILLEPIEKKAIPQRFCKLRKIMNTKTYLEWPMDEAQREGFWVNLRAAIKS
Excerpt: (§2) To test if the 35 amino acid N-terminus of annexin II, which distinguishes annexin II from other annexins, contains adjuvant activity, we pulsed bone marrow-derived dendritic cells (BMDC) with gp100+/−A2OVA, fusion peptide containing this 35 amino acid fragment. […] We then tested whether this fusion peptide enhanced adjuvant activity over that of addition of OVA and full length annexin II protein. BMDC were pulsed with A2OVA and we measured the OVA-specific OT-1 CD8 T cell response. […] To further investigate the ability to derive a novel single antigen fusion peptide, we constructed OVA fusion peptides in which an OVA peptide (SEQ ID NO:9) was fused to either an annexin II N-terminal fragment or a scrambled 35 amino acid peptide to produce SEQ ID NO:30 and SEQ ID NO:29, respectively. Peptides were pulsed on TLR2 transfected cells and alkaline phosphatase activity was used to determine NF-κB activity (FIG. 3).
HEK 293 Blue Cells (Invivogen, San Diego, Calif.) stably transfected with hTLR2 were pulsed with annexin II-OVA fusion protein (A2OVA, SEQ ID NO:32) at equal concentration as annexin II monomer (A2 Peptide, SEQ ID NO:28). Scrambled annexin II N-terminus polypeptide (SEQ ID NO:29, Scrambled) and an annexin II fragment (SEQ ID NO:30, Minus p11) were used as controls. Cells were incubated for 48 hours. Following incubation, supernatant was added to Quanti-Blue (Invivogen, San Diego, Calif.) for secreted alkaline phosphatase detection.
(§3) TLR2-transfected HEK 293 Blue Cells and TLR4-transfected HEK 293 Blue Cells (Invivogen, San Diego, Calif.) were pulsed with the N-terminal 15 amino acid annexin II fragment peptide (15aa Peptide, SEQ ID NO:5) at different concentrations. Cells were incubated for 48 hours. Following incubation, supernatant was added to Quanti-Blue (Invivogen, San Diego, Calif.) for secreted alkaline phosphatase detection.
as §3, with “or one of the annexin II variants shown in Table 1.” for “at different concentrations.”

[3] = test system: OVA specific CD8+ T cell response; assay: Vaccination of BL/6 mice, CD8+SIINFEKL+ expansion in whole blood on Day 8; type: in vivo; details: four consecutive days, hind leg
Method: as §1
BL/6 mice also were vaccinated for four consecutive days in the hind leg with ovalbumin (OVA), ovalbumin+ and 50 μg of the N-terminal 15 amino acid annexin II fragment peptide (SEQ ID NO:5, 15aa), or ovalbumin+50 μg the annexin II variant A-6 (Table 1, SEQ ID NO:17, 15aaP6). On Day 8, mice were bled and whole blood was analyzed for CD8^+SIINFEKL^+ expansion.

[4] = biological target: T2, TLR4 (Homo sapiens, UniProt O00206); assay: TLR4-transfected HEK 293 Blue cells, secreted alkaline phosphatase (NF-κB activity); type: cell-based; details: 48 hours, FIGS. 6, 7
T2 construct: host or cells: HEK 293 Blue Cells
T2 sequence (O00206 24-839, species assumed): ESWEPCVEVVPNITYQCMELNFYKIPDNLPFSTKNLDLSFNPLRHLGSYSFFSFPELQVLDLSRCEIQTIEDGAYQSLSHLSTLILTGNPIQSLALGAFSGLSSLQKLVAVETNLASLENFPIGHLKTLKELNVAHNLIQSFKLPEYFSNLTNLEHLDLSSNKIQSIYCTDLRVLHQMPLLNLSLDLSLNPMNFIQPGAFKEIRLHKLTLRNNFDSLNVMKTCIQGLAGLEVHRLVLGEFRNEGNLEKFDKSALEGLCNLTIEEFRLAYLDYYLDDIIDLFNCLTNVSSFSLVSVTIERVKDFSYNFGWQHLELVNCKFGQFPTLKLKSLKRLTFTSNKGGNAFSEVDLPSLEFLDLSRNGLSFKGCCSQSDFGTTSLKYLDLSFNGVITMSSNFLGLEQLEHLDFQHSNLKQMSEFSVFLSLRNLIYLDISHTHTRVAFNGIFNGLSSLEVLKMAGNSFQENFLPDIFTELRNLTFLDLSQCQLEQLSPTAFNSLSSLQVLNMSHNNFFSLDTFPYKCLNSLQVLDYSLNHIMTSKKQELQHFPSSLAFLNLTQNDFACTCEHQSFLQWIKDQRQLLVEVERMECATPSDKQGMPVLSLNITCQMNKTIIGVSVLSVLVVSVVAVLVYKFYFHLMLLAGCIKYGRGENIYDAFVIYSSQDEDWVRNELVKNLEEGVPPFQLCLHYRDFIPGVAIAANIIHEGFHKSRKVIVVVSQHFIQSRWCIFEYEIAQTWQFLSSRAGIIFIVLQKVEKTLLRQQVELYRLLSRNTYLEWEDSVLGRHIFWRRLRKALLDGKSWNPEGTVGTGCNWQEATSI
T2 sequence (Q9Y6Y9 17-160 partner limits assumed, species assumed): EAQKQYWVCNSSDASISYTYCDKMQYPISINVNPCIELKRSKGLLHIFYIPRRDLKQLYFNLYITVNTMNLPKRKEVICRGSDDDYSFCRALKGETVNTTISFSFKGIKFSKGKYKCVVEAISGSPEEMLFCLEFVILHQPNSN
Excerpt: To better characterize the 35 amino acid N-terminus as an adjuvant, we serially removed five amino acids from the C-terminus end of the N-terminal fragment to produce annexin II variants SEQ ID NO:2, SEQ ID NO:3, SEQ ID NO:4, SEQ ID NO:5, and SEQ ID NO:6. We tested the resulting peptides for NF-κB activity. […] To test the ability of the 15 amino acid annexin II fragment (SEQ ID NO:5) to stimulate an immune response, and to determine whether its ability to do so is mediated through TLR2, wild-type and TLR-2 knockout mice were given OVA±annexin II or OVA±the 15 amino acid N-terminal annexin II fragment (SEQ ID NO:5).
as §3
TLR2-transfected HEK 293 Blue Cells and TLR4-transfected HEK 293 Blue Cells (Invivogen, San Diego, Calif.) were pulsed with the N-terminal 15 amino acid annexin II fragment peptide (15aa Peptide, SEQ ID NO:5) or one of the annexin II variants shown in Table 1. Cells were incubated for 48 hours. […]

[5] = test system: bone marrow derived dendritic cells; assay: BMDCs (wild-type, TLR2-/-, TLR4-/-, MyD88-/-) pulsed with peptide, CD80/CD86 by flow cytometry; type: cell-based, mice; details: 50 μg peptide, 48 hours, TLR2, TLR4 and MyD88 knockout BMDCs, CD11c+MHCII+ gate; for CD80 co-stimulatory molecule expression (MFI): FIG. 11; for CD86 co-stimulatory molecule expression (MFI): FIG. 12
Method: To further characterize the activity of the A-6 variant (SEQ ID NO:17), BMDCs from wild-type, TLR2 knockout, TLR4 knockout, and MyD88 knockout mice were pulsed with the peptide and analyzed for co-stimulatory molecules CD80 (FIG. 11) and CD86 (FIG. 12).
BDMCs (wild-type, TLR2^−/−, TLR4^−/−, and MyD88^−/−) were cultured with 20 ng/mL GM-CSF for six days, then pulsed with 50 ng Pam3CSK4, 50 ng LPS, 50 μg of the N-terminal 15 amino acid annexin II fragment peptide (SEQ ID NO:5, 15aa A2p), or 50 μg of annexin II variant A-6 (SEQ ID NO:17, 15aa A2p6 AL). After 48 hours, cells were stained for CD11c, MHC II, CD80, and CD86 and analyzed by flow cytometry. MFI shown is from a live cell, CD11c^+MHCII^+ gate.

[6] = test system: bone marrow derived dendritic cells; assay: BMDCs (wild-type, TLR4-/-, MyD88-/-) pulsed with peptide, TNF in supernatant by bead array; type: cell-based, mice; details: 50 μg peptide, 48 hours, TLR4 knockout and MyD88 knockout BMDCs, FIG. 10
Method: To determine the 15 amino acid N-terminal annexin II fragment's activity on dendritic cells, BMDCs were derived for wild-type, TLR4 knockout, and MyD88 knockout mice. The various BMDCs and pulsed with the 15 amino acid N-terminal annexin II fragment (SEQ ID NO:5).
BMDCs (wild-type, TLR4^−/−, and MyD88^−/−) were cultured with 20 ng/mL GM-CSF for six days, then pulsed with 50 ng Pam3CSK4, 50 ng LPS, or 50 μg of the N-terminal 15 amino acid annexin II fragment peptide (SEQ ID NO:5, A2-15aa). After 48 hours, cell culture supernatant was assayed for TNF by bead array.

[7] = test system: gp100-specific CD8 T cell response; assay: BMDCs pulsed with hgp100 25-33 plus peptide, co-cultured with Pmel CD8+ T cells, IFN-γ by bead array; type: cell-based, C57BL/6 mice; details: BMDC pulsed with gp100 +/- A2OVA; equal concentration and equal molecular ratio compared to full-length annexin II; FIG. 1
Excerpt: as §2
Bone marrow derived dendritic cells (BMDCs) were differentiated from C57BL/6 mice and pulsed with hgp10025-33 (SEQ ID NO: 27) with annexin II-OVA fusion protein (SEQ ID NO:32) at equal concentration (*) or equal molecular ratio (**) as A2 monomer (SEQ ID NO:28) and incubated for 24 hours. Annexin A2 monomer was used as a positive control. […] IFN-γ in the tissue culture supernatant was quantified by bead array.

[8] = test system: OVA-specific OT-1 CD8 T cell response; assay: BMDCs pulsed with OVA peptide/fusion, co-cultured with OT-I CD8+ T cells, IFN-γ by bead array; type: cell-based, mice; details: BMDC pulsed with A2OVA versus A2 monomer + OVA as separate agents; FIG. 2
Excerpt: as §2
BMDCs were pulsed with OVA248-274 (SEQ ID NO:31), annexin II (A2 monomer, SEQ ID NO:28), a combination of OVA248-274 and annexin II (A2 monomer+OVA), or annexin II-OVA fusion protein (A2OVA, SEQ ID NO:32), and incubated for 24 hours. Purified OT-I CD8^+ T cells were added and co-cultured for an additional 48 hours. IFN-γ in the tissue culture supernatant was quantified by bead array.

Sequence	survival of tumor bearing mice [1]	NF-κB activity through TLR2 (alkaline phosphatase) [2]	OVA specific T cell priming in vivo (CD8+SIINFEKL+ expansion) ([3]; BL/6 mice, ovalbumin + 50 μg peptide, Day 8, versus 15aa fragment, FIG. 9)	NF-κB activity through TLR4 (alkaline phosphatase) [4]	CD80 co-stimulatory molecule expression (MFI) [5]	CD86 co-stimulatory molecule expression (MFI) [5]	TNF secretion from BMDCs [6]	antigen specific CD8+ T cell response in vivo (CD8+SIINFEKL+ expansion) ([3]; non-tumor bearing BL/6 mice, Poly:ICLC and 50 μg peptide, Day 8, FIG. 4B)	tumor size ([1]; breast tumor bearing mice, FIG. 5B)	adjuvant activity in gp100-specific CD8 T cell response (IFN-γ) [7]	IFNγ response of OVA-specific OT-1 CD8 T cells [8]
DHSTPPSAYGSVKPYTNFDAEEQLESIINFEKLTEWT (DHSTPPSAYGSVKPYTNFDAEEQLESIINFEKLTEWT; annexin II peptide fragment minus p11) [SEQ ID NO:30, reference compound]	conferred no survival benefit	did not elicit a response	–	–	–	–	–	–	–	–	–
STVHEALCKL SLEGD (STVHEALCKLSLEGD; annexin II variant polypeptide) [A-6, alanine for isoleucine substitution at position six of a 15 amino acid annexin II fragment]	–	enhanced TLR2 and TLR4 signaling	enhanced OVA specific T cell priming in vivo	enhanced TLR2 and TLR4 signaling	increased CD80 and CD86 co-stimulatory molecule expression in a TLR4- and MyD88-dependent manner	increased CD80 and CD86 co-stimulatory molecule expression in a TLR4- and MyD88-dependent manner	–	–	–	–	–
STVHEILCKL SLEGD (STVHEILCKLSLEGD; annexin II variant polypeptide) [SEQ ID NO:5, N-terminal 15 amino acid annexin II fragment peptide]	–	activated TLR2	–	–	increased CD80 and CD86 co-stimulatory molecule expression in a TLR4- and MyD88-dependent manner	increased CD80 and CD86 co-stimulatory molecule expression in a TLR4- and MyD88-dependent manner	mediated induction of TNF secretion and that the activity is MyD88-dependent	–	–	–	–
STVHEILCKLSLEGDHSTPPSAYGSVKPYTNFDAEEQLESIINFEKLTEWT (STVHEILCKLSLEGDHSTPPSAYGSVKPYTNFDAEEQLESIINFEKLTEWT; annexin II-OVA fusion protein (A2OVA) polypeptide) [fusion peptide of the 35 amino acid annexin II N-terminus and OVA peptide]	enhanced survival compared to saline or scrambled control	stimulated NF-κB through TLR2	–	–	–	–	–	stimulated an antigen specific CD8^+ T cell response in vivo	reducing tumor size in vivo	exerted adjuvant activity	induced an IFNγ response superior to that of A2 monomer (A2m)+OVA added as separate agents
